What was measured:
[1] = DRUGMATRIX: Platelet-Derived Growth Factor (PDGF) radioligand binding (ligand: [125I] PDGF); assay type: cell-based; details: nih3t3; Not Active = under 50% inhibition at 10 µM
Melanocortin receptor 5 = Melanocortin receptor 5 (Homo sapiens, UniProt P33032); assay type: cell membranes, HEK293, Membrane; further: in other assays of this panel Not Active means under 50% inhibition at 10 µM
[2] = target: T1, Receptor-type tyrosine-protein phosphatase C (Homo sapiens, UniProt P08575); parameters: species or system Escherichia coli;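 further: inhibition of CD45 enzyme activity measured using DiFMUP as substrate; in other assays of this panel Not Active means under 50% inhibition at 10 µM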
T1 sequence (P08575 whole entry): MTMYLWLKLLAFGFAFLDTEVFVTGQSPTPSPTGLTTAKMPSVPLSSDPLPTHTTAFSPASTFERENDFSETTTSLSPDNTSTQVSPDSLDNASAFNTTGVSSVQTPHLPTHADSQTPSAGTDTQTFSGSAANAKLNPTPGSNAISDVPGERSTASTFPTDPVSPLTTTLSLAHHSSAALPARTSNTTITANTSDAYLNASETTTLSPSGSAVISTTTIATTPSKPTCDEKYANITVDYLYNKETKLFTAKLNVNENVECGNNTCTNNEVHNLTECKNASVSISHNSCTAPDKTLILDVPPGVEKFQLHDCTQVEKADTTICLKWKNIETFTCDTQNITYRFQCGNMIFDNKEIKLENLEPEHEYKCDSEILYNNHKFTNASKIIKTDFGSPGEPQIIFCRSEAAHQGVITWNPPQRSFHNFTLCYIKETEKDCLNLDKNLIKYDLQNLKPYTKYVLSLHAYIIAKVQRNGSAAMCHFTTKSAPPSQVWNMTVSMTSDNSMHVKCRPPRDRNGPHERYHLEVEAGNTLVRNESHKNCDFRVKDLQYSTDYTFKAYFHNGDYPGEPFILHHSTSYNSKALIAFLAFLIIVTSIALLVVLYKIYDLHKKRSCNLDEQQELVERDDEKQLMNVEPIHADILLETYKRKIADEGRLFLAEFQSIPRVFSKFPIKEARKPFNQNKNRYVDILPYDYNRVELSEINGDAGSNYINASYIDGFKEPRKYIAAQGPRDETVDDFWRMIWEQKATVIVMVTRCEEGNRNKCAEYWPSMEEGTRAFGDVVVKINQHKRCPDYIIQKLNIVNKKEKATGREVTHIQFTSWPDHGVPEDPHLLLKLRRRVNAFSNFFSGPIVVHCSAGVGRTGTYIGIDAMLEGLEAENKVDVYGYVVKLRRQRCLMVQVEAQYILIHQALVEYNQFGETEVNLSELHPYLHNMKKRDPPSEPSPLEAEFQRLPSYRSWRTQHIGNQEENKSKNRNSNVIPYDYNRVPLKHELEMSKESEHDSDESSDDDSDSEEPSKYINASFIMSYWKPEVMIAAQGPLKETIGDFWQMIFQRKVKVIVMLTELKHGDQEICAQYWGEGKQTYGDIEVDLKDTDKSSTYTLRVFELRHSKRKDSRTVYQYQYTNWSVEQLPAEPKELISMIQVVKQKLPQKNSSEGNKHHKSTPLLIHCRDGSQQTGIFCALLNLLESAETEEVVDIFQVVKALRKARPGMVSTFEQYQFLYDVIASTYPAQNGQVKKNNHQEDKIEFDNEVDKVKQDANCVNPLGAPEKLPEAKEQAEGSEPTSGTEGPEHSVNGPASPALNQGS

[3] = target: C-C chemokine receptor type 2 (Homo sapiens, UniProt P41597); assay type: cell membranes, CHO-K1, Membrane; details: cho-k1; further: in other assays of this panel Not Active means under 50% inhibition at 10 µM
Sequence of C-C chemokine receptor type 2 (P41597 whole entry): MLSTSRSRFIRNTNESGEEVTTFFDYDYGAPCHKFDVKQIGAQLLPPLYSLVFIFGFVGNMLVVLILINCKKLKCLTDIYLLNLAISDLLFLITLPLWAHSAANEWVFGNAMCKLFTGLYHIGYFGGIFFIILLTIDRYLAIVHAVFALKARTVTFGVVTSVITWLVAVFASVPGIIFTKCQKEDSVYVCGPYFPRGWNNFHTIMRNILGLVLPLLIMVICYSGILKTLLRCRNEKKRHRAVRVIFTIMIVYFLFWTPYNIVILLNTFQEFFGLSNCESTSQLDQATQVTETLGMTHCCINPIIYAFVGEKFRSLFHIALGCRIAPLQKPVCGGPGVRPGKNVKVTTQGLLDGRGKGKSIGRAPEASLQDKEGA

[4] = DRUGMATRIX: GABAA, Flunitrazepam, Central radioligand binding (ligand: [3H] Flunitrazepam); assay type: cell membranes, Rattus norvegicus, Wistar, Brain, Membrane; details: Not Active = under 50% inhibition at 10 µM
D(3) dopamine receptor = D(3) dopamine receptor (Homo sapiens, UniProt P35462); experiment: DRUGMATRIX: Dopamine D3 radioligand binding (ligand: [3H] Spiperone); assay type: cell membranes, CHO, Membrane
Sequence of D(3) dopamine receptor (P35462 whole entry): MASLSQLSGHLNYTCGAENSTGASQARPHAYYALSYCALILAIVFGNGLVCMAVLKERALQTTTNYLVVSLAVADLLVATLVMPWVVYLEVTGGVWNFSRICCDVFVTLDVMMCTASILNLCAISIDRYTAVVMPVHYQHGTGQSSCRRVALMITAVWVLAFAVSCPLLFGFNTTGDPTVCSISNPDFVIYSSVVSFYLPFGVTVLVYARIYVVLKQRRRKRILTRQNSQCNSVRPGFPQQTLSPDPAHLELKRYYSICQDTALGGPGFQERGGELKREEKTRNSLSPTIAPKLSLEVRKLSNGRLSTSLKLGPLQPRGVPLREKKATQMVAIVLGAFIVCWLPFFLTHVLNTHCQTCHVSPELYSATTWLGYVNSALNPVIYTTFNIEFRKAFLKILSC

Sequence of Melanocortin receptor 5 (P33032 whole entry): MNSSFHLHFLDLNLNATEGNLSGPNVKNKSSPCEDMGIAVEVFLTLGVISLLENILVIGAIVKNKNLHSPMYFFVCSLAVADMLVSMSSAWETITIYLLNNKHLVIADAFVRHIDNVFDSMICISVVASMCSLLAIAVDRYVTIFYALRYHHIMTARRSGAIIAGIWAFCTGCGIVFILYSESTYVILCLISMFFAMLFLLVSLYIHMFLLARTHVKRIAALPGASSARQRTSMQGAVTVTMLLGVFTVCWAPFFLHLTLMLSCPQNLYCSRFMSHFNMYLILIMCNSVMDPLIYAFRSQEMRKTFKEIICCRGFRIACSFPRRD

Row | Compound | IC50 [1] | Ki [1] | IC50 (Melanocortin receptor 5; hek293) | IC50 [2] | IC50 [3] | IC50 [4] | Ki [4] | IC50 (D(3) dopamine receptor; cho) | IC50 ([4]; read-out: IC50) [µM] | Ki ([4]; read-out: Ki) [µM] | IC50 (Melanocortin receptor 5; read-out: IC50) [µM] | Ki (Melanocortin receptor 5; read-out: Ki) [µM] | IC50 (D(3) dopamine receptor; read-out: IC50) [µM] | Ki (D(3) dopamine receptor; read-out: Ki) [µM]
1 | CCN1CCN(C(=O)N[C@@H](C(=O)N[C@@H]2C(=O)N3[C@@H]2SC(C)(C)[C@@H]3C(=O)O)c2ccccc2)C(=O)C1=O [PIPERACILLIN] | Not Active | Not Active | Not Active | Not Active | Not Active | Not Active | Not Active | Not Active | – | – | – | – | – | –
2 | C=CCN1CC[C@]23c4c5ccc(O)c4O[C@H]2/C(=N/N=C2\CC[C@@]4(O)[C@H]6Cc7ccc(O)c8c7[C@@]4(CCN6CC=C)[C@H]2O8)CC[C@@]3(O)[C@H]1C5 [NALOXONAZINE] | Not Active | Not Active | Not Active | Not Active | Not Active | Not Active | Not Active | Not Active | – | – | – | – | – | –
3 | c1ccc2c(c1)Nc1ccccc1S2 [PHENOTHIAZINE] | Not Active | Not Active | Not Active | Not Active | Not Active | Not Active | Not Active | Not Active | – | – | – | – | – | –
4 | Cl.NC[C@H]1CC[C@H](C(=O)Oc2ccc(CCC(=O)O)cc2)CC1 [CETRAXATE HYDROCHLORIDE] | Not Active | Not Active | Not Active | Not Active | Not Active | Not Active | Not Active | Not Active | – | – | – | – | – | –
5 | CN(CCOc1ccc(C[C@H](Nc2ccccc2C(=O)c2ccccc2)C(=O)O)cc1)c1ccccn1 | Not Active | Not Active | Not Active | Not Active | Not Active | Not Active | Not Active | Not Active | – | – | – | – | – | –
6 | Nc1nc(F)nc2c1ncn2[C@@H]1O[C@H](CO)[C@@H](O)[C@@H]1O [FLUDARABINE] | Not Active | Not Active | Not Active | Not Active | Not Active | Not Active | Not Active | Not Active | – | – | – | – | – | –
7 | OC[C@H]1OC2C3[C@@H](CO)OC(O[C@H]4[C@H](O)[C@@H](O)[C@@H](O[C@H]5[C@H](O)[C@@H](O)[C@@H](O[C@H]6[C@H](O)[C@@H](O)[C@@H](O[C@H]7[C@H](O)[C@@H](O)[C@@H](O[C@H]8[C@H](O)[C@@H](O)[C@@H](O[C@H]9[C@H](O)[C@@H](O)C(OC1[C@H](O)[C@H]2O)O[C@@H]9CO)O[C@@H]8CO)O[C@@H]7CO)O[C@@H]6CO)O[C@@H]5CO)O[C@@H]4CO)[C@H](O)[C@H]3O | Not Active | Not Active | Not Active | Not Active | Not Active | Not Active | Not Active | Not Active | – | – | – | – | – | –
8 | C=CCO [ALLYL ALCOHOL] | Not Active | Not Active | Not Active | Not Active | Not Active | Not Active | Not Active | Not Active | – | – | – | – | – | –
9 | C[C@]12CC[C@@H](O)C[C@@H]1CC[C@@H]1[C@@H]2CC[C@]2(C)C(=O)CC[C@@H]12 [ANDROSTERONE] | Not Active | Not Active | Not Active | Not Active | Not Active | Not Active | Not Active | Not Active | – | – | – | – | – | –
10 | COC(=O)Nc1nc2ccc(Sc3ccccc3)cc2[nH]1 [FENBENDAZOLE] | Not Active | Not Active | Not Active | Not Active | Not Active | Not Active | Not Active | Not Active | – | – | – | – | – | –
11 | C#C[C@]1(O)CC[C@H]2[C@@H]3CCC4=CC(=O)CC[C@@H]4[C@H]3CC[C@@]21C [NORETHINDRONE] | Not Active | Not Active | Not Active | Not Active | Not Active | – | – | Not Active | 13.3 | 10.9 | – | – | – | –
12 | O=C(Nc1ccc(Cl)c(Cl)c1)c1cc(Cl)cc(Cl)c1O [3,3',4',5-TETRACHLOROSALICYLANILIDE] | Not Active | Not Active | Not Active | Not Active | Not Active | Not Active | Not Active | Not Active | – | – | – | – | – | –
13 | CCN(CCO)CCCC(C)Nc1ccnc2cc(Cl)ccc12 (centres undefined) [HYDROXYCHLOROQUINE] | Not Active | Not Active | Not Active | Not Active | Not Active | Not Active | Not Active | Not Active | – | – | – | – | – | –
14 | CC1(COc2ccc(CC3SC(=O)NC3=O)cc2)CCCCC1 (centres undefined) [CIGLITAZONE] | Not Active | Not Active | – | Not Active | Not Active | Not Active | Not Active | – | – | – | 28.6 | 26.8 | 26.7 | 9.07
15 | COc1cc([C@@H]2c3cc4c(cc3[C@H](O)[C@H]3COC(=O)[C@H]23)OCO4)cc(OC)c1OC [PODOFILOX] | Not Active | Not Active | Not Active | Not Active | Not Active | Not Active | Not Active | Not Active | – | – | – | – | – | –
16 | COC(=O)C[C@](O)(CCC(C)(C)O)C(=O)O[C@@H]1C(OC)=C[C@]23CCCN2CCc2cc4c(cc2[C@H]13)OCO4 [HARRINGTONINE] | Not Active | Not Active | Not Active | Not Active | Not Active | Not Active | Not Active | Not Active | – | – | – | – | – | –
17 | CCCCCCNC(=O)n1cc(F)c(=O)[nH]c1=O [CARMOFUR] | Not Active | Not Active | Not Active | Not Active | Not Active | Not Active | Not Active | Not Active | – | – | – | – | – | –
18 | O=c1[nH]cnc2c1ncn2[C@H]1CC[C@@H](CO)O1 [DIDANOSINE] | Not Active | Not Active | Not Active | Not Active | Not Active | Not Active | Not Active | Not Active | – | – | – | – | – | –
19 | O=C(O)CO [GLYCOLIC ACID] | Not Active | Not Active | Not Active | Not Active | Not Active | Not Active | Not Active | Not Active | – | – | – | – | – | –
20 | CC(C)Cc1ccc([C@H](C)C(=O)O)cc1 [DEXIBUPROFEN] | Not Active | Not Active | Not Active | Not Active | Not Active | Not Active | Not Active | Not Active | – | – | – | – | – | –
21 | CC(C)(C#N)c1cc(Cn2cncn2)cc(C(C)(C)C#N)c1 [ANASTROZOLE] | Not Active | Not Active | Not Active | Not Active | Not Active | Not Active | Not Active | Not Active | – | – | – | – | – | –
22 | O=C1c2ccccc2C(=O)C1c1ccccc1 [PHENINDIONE] | Not Active | Not Active | Not Active | Not Active | Not Active | Not Active | Not Active | Not Active | – | – | – | – | – | –
23 | NC(=O)NC(=O)Cc1ccccc1 [PHENACEMIDE] | Not Active | Not Active | Not Active | Not Active | Not Active | Not Active | Not Active | Not Active | – | – | – | – | – | –
24 | O=C(NCCN1CCOCC1)c1ccc(Cl)cc1 [MOCLOBEMIDE] | Not Active | Not Active | Not Active | Not Active | Not Active | Not Active | Not Active | Not Active | – | – | – | – | – | –
